# Measurements: ChEMBL document CHEMBL5257097, “An Isomer of Galidesivir That Potently Inhibits Influenza Viruses and Members of the Bunyavirales Order” (ACS Med Chem Lett, 2023)
# Tests used:
# Ebolavirus = experiment: Antiviral activity against Ebola virus infected in human HeLa cells assessed as reduction in viral cytopathic effect; type: functional, organism-based; details: Orthoebolavirus
# Influenza A virus [1] = experiment: Antiviral activity against Influenza A virus infected in dog MDCK cells assessed as reduction in viral cytopathic effect; type: functional, organism-based
# Measles morbillivirus = experiment: Antiviral activity against Measles virus infected in African green monkey Vero cells assessed as reduction in viral cytopathic effect; type: functional, organism-based
# dengue virus type 2 = experiment: Antiviral activity against DENV-2 infected in African green monkey Vero cells assessed as reduction in virus-induced cytopathic effect measured after 15 to 30 mins by neutral red based analysis; type: functional, organism-based
# [2] = Selectivity index, ratio of CC50 for cytotoxicity against African green monkey Vero cells infected with DENV-2 assessed as reduction in cell viability by neutral red analysis to EC50 for antiviral activity against DENV-2 infected in human Huh-7 cells assessed as reduction in virus-induced cytopathic effect by neutral red analysis; type: toxicity, cell-based; details: read-out: Ratio CC50/EC50
# [3] = tested on: Middle East respiratory syndrome-related coronavirus; experiment: Antiviral activity against MERS-CoV infected in vervet monkey MA-104 cells assessed as reduction in virus-induced cytopathic effect measured after 15 to 30 mins by visual analysis; type: functional, organism-based; details: MA104
# Influenza A virus [4] = experiment: Antiviral activity against Influenza A virus H3N2 infected in dog MDCK cells assessed as inhibition of viral replication measured after 15 to 30 mins by neutral red dye based analysis; type: functional, organism-based
# Influenza A virus [5] = experiment: Antiviral activity against Influenza A virus H7N9 infected in dog MDCK cells assessed as inhibition of viral replication measured after 15 to 30 mins by neutral red dye based analysis; type: functional, organism-based
# Influenza B virus [6] = experiment: Antiviral activity against Influenza B virus infected in dog MDCK cells assessed as inhibition of viral replication measured after 15 to 30 mins by neutral red dye based analysis; type: functional, organism-based
# [7] = Cytotoxicity against dog MDCK cells infected with Influenza A virus H1N1 assessed as reduction in cell viability by neutral red dye based analysis; type: toxicity, Canis lupus familiaris
# [8] = Cytotoxicity against dog MDCK cells infected with Influenza A virus H3N2 assessed as reduction in cell viability by neutral red dye based analysis; type: toxicity, Canis lupus familiaris
# [9] = Cytotoxicity against dog MDCK cells infected with Influenza A virus H3N2 assessed as reduction in cell viability by visual analysis; type: toxicity, cell-based, Canis lupus familiaris
# [10] = Cytotoxicity against dog MDCK cells infected with Influenza A virus H7N9 assessed as reduction in cell viability by visual analysis; type: toxicity, cell-based, Canis lupus familiaris
# [11] = Cytotoxicity against dog MDCK cells infected with Influenza B virus assessed as reduction in cell viability by visual analysis; type: toxicity, cell-based, Canis lupus familiaris
# [12] = (§1) Selectivity index, ratio of CC50 for cytotoxicity against dog MDCK cells infected with Influenza A virus H3N2 assessed as reduction in cell viability by visual analysis to EC50 for antiviral activity against Influenza A virus H3N2 infected in dog MDCK cells assessed as inhibition of viral replication by visual analysis; type: toxicity, cell-based; details: read-out: Ratio CC50/EC50
# [13] = as §1, with “H7N9” for “H3N2”, “neutral red dye based” for “visual”; type: toxicity; details: read-out: Ratio CC50/EC50
# [14] = Selectivity index, ratio of CC50 for cytotoxicity against dog MDCK cells infected with Influenza B virus assessed as reduction in cell viability by neutral dye based analysis to EC50 for antiviral activity against Influenza B virus infected in dog MDCK cells assessed as inhibition of viral replication by neutral red dye based analysis; type: toxicity; details: read-out: Ratio CC50/EC50
# Influenza A virus [15] = experiment: Antiviral activity against Influenza A virus H1N1 infected in dog MDCK cells assessed as reduction in virus yield measured after 3 days by visual analysis; type: functional; details: 72 h, time 3 day
# Influenza A virus [16] = experiment: Antiviral activity against Influenza A virus H3N2 infected in dog MDCK cells assessed as reduction in virus yield measured after 3 days by visual analysis; type: functional; details: 72 h, time 3 day
# Influenza B virus [17] = experiment: Antiviral activity against Influenza B virus infected in dog MDCK cells assessed as reduction in virus yield measured after 3 days by visual analysis; type: functional; details: 72 h, time 3 day
# Junin virus = experiment: Antiviral activity against Junin virus infected in African green monkey Vero E6 cells assessed as inhibition of viral replication by neutral red dye based analysis; type: functional, organism-based; details: Mammarenavirus juninense, Vero C1008
# Pichinde virus = experiment: Antiviral activity against Pichinde virus infected in African green monkey Vero cells assessed as inhibition of viral replication by visual analysis; type: functional, organism-based
# [18] = tested on: Mammarenavirus choriomeningitidis; experiment: Antiviral activity against Lymphocytic choriomeningitis virus infected in African green monkey Vero E6 cells assessed as reduction in viral yield measured for 3 days; type: functional; details: Vero C1008, 72 h, time 3 day
# [19] = tested on: Severe fever with thrombocytopenia syndrome virus; experiment: Antiviral activity against Severe fever with thrombocytopenia syndrome virus infected in African green monkey Vero E6 cells assessed as reduction in viral yield measured for 3 days; type: functional; details: Vero C1008, 72 h, time 3 day
# [20] = Cytotoxicity against African green monkey Vero E6 cells infected with Rift Valley fever virus assessed as reduction in cell viability; type: toxicity, cell-based, Vero C1008; details: chlorocebus sabaeus
# [21] = Cytotoxicity against African green monkey Vero E6 cells infected with Heartland virus assessed as reduction in cell viability; type: toxicity, cell-based, Vero C1008; details: chlorocebus sabaeus
# [22] = Cytotoxicity against African green monkey Vero 76 cells infected with La Crosse virus assessed as reduction in cell viability by neutral red dye based analysis; type: toxicity; details: chlorocebus sabaeus
# [23] = Cytotoxicity against African green monkey Vero E6 cells infected with Oropouche virus assessed as reduction in cell viability by visual analysis; type: toxicity, cell-based, Vero C1008; details: chlorocebus sabaeus
# [24] = Cytotoxicity against African green monkey Vero E6 cells infected with Oropouche virus assessed as reduction in cell viability by neutral red dye based analysis; type: toxicity, Vero C1008; details: chlorocebus sabaeus
# [25] = Cytotoxicity against African green monkey Vero E6 cells infected with Severe fever with thrombocytopenia syndrome virus assessed as reduction in cell viability; type: toxicity, cell-based, Vero C1008; details: chlorocebus sabaeus
# [26] = (§2) Selectivity index, ratio of CC50 for cytotoxicity against African green monkey Vero E6 cells infected with Heartland virus assessed as reduction in cell viability to EC90 for antiviral activity against Heartland virus infected in African green monkey Vero E6 cells assessed as reduction in viral yield; type: toxicity, cell-based, Vero C1008
# [27] = as §2, with “Vero” for “Vero E6”, “JUNV” for “Heartland virus”, “viability by visual analysis” for “viability”, “EC50” for “EC90”, “replication by visual analysis” for “yield”; type: toxicity, cell-based; details: read-out: Ratio CC50/EC50
# [28] = (§3) Selectivity index, ratio of CC50 for cytotoxicity against African green monkey Vero cells infected with JUNV assessed as reduction in cell viability by neutral red dye based analysis to EC50 for antiviral activity against JUNV infected in African green monkey Vero cells assessed as reduction in viral replication by neutral red dye based analysis; type: toxicity; details: read-out: Ratio CC50/EC50
# [29] = as §3, with “Vero E6” for “Vero”, “Oropouche virus” for “JUNV”, “visual” for “neutral red dye based”; type: toxicity, cell-based, Vero C1008; details: read-out: Ratio CC50/EC50
# [30] = as §3, with “Pichinde virus” for “JUNV”, “visual” for “neutral red dye based”; type: toxicity, cell-based; details: read-out: Ratio CC50/EC50
# [31] = as §2, with “Severe fever with thrombocytopenia syndrome” for “Heartland”, “replication” for “yield”; type: toxicity, cell-based, Vero C1008
# [32] = as §3, with “Tacaribe virus” for “JUNV”, “visual” for “neutral red dye based”; type: toxicity, cell-based; details: read-out: Ratio CC50/EC50
# [33] = as §3, with “Tacaribe virus” for “JUNV”; type: toxicity; details: read-out: Ratio CC50/EC50
# [34] = Toxicity in BALB/c mouse infected with A/Ca/04/09 (H1N1) assessed as animal survival at 10 to 300 mg/kg, ip administered twice a day for 5 days; type: organism-based; details: in vivo, 120 h, dose 10-300 mg/kg, time 5 day
# [35] = Toxicity in BALB/c mouse infected with A/Ca/04/09 (H1N1) assessed as animal mean day of death at 10 mg/kg, ip administered twice a day for 5 days (reference value: 9.3 +/-1.1 day ); type: organism-based; details: in vivo, 120 h, time 5 day
smiles,measurement,setting,value
Nc1ncnc2c([C@@H]3N[C@H](CO)[C@@H](O)[C@H]3O)c[nH]c12 [GALIDESIVIR],EC50,Ebolavirus,3 µM
same,EC50,Influenza A virus [1],1 µM
same,EC50,Measles morbillivirus,1.8 µM
same,EC50,dengue virus type 2,15 µM
same,selectivity ratio,[2],> 6.7
same,EC50,[3],32 µM
Nc1ncnn2c([C@@H]3N[C@H](CO)[C@@H](O)[C@H]3O)ccc12,EC50,Influenza A virus [4],0.31 µM
same,EC50,Influenza A virus [5],0.39 µM
same,EC50,Influenza B virus [6],0.26 µM
same,CC50,[7],14 µM
same,CC50,[8],10 µM
same,CC50,[9],12 µM
same,CC50,[10],32 µM
same,CC50,[11],12 µM
same,selectivity ratio,[12],38
same,selectivity ratio,[13],77
same,selectivity ratio,[14],38
same,EC90,Influenza A virus [15],0.1 µM
same,EC90,Influenza A virus [16],0.25 µM
same,EC90,Influenza B virus [17],0.3 µM
same,EC50,Junin virus,0.28 µM
same,EC50,Pichinde virus,0.38 µM
same,EC90,[18],0.15 µM
same,EC90,[19],0.22 µM
same,CC50,[20],8.6 µM
same,CC50,[21],13 µM
same,CC50,[22],24 µM
same,CC50,[23],24 µM
same,CC50,[24],15 µM
same,CC50,[25],11 µM
same,selectivity ratio,[26],97
same,selectivity ratio,[27],22
same,selectivity ratio,[28],34
same,selectivity ratio,[29],62
same,selectivity ratio,[30],42
same,selectivity ratio,[31],49
same,selectivity ratio,[32],32
same,selectivity ratio,[33],20
same,Activity,[34],Non-Toxic
same,Time,[35],12 days
